Reference: a melting point compilation (Tetko et al.; mined from patent text by program, amines drawn as free bases though some values may be those of a salt)
Residues, ends and D or L forms follow the SMILES beside them. *: point of attachment. Cbz = O=C(OCc1ccccc1)*

Row | melting point [°C] | Structure (SMILES)
1 | 195 to 197 | CNC(=O)c1cc2ccc3c(c2c(-c2ccc(OC(F)(F)F)cc2)c1CO)OCO3
2 | 97.4 | COc1ccc2c(c1)C(C(=O)O)CCO2 (centres undefined)
3 | 219 | O=C(O)COc1ccc(NC(=O)c2csc(NC(=O)NCc3ccccc3)n2)cc1C(=O)O
4 | 101 to 103 | CCOC(=O)COCc1nnc(S)o1
5 | 153 to 156 | Clc1cc(Cl)cc(NCNc2cc(Cl)cc(Cl)c2)c1
6 | 179 to 180 | Cc1ccccc1C(=O)Nc1c(NC(=O)CCl)ccc2c1C(=O)c1ccccc1C2=O
7 | 152 to 153 | CC(CC(F)(F)CC(Cl)(CO)CO)C1CCC2C3CC=C4CC(O)CCC4(C)C3CCC12C (centres undefined)
8 | 102 to 104 | O=S(=O)(Nc1cccc(CCOCc2ccc(-c3ccc(Cl)c(Cl)c3)cc2F)c1)C(F)(F)F
9 | 145 to 146 | OCc1c(CO)c(-c2ccc(F)c(F)c2)n2c1Cc1ccccc1C2
10 | 242 to 243 | O=C(c1cc(O)ccc1Nc1ccncc1)N1CCCCC1
11 | 88 to 89 | CCc1ccc(C2COc3c(C)c(C)c(N)c(C)c32)cc1 (centres undefined)
12 | 124 | Cc1ccc(S(=O)(=O)N2C[C@H]3C[C@@H]2CN3Cc2ccccc2)cc1
13 | 156 to 158 | Cc1nn(C)c2c1N(C(=O)CN1CCCCC1)c1ccccc1NC2=O
14 | 181 to 183 | CCOC(=O)c1cc2c(OCC(O)CNC(C)(C)C)cc(C)cc2[nH]1 (centres undefined)
15 | 216 | Cn1cc(-c2cncc(OC3SCC(O)C(O)C3O)c2)cn1 (centres undefined)
16 | 169 to 172 | Cc1nn(-c2c(Cl)cc(C(F)(F)F)cc2Cl)c(N)c1C=O
17 | 83 to 90 | Nc1ccncc1Nc1ccc2[nH]ccc2c1
18 | 172 | COc1ccc(-c2nc(-c3ccc(OCCO)cc3O)nc(-c3ccc(OCCO)cc3OCCO)n2)cc1
19 | 172 to 175 | CC(=O)CN1CCc2c(c(=O)oc3cc(C)c(Cl)cc23)C1
20 | 123 to 125 | CCOc1ccc(C(=O)C2CC=CCC2C(=O)O)cc1Cl (centres undefined)
21 | 118 | CC[C@H](COC)n1cc(Br)nc(N2CCc3cc(Br)cc(Cl)c32)c1=O
22 | 156 to 157 | CCCCC(=O)c1c(-c2ccc3cc(O)ccc3c2)oc2ccc(Cl)cc12
23 | 81 to 83 | CCCCOc1ccc2c(c1)CCC(C(=O)OC)C2O (centres undefined)
24 | 174 | Cc1cc(Cl)cc(C(=O)Nc2cccc(Cl)c2)n1
25 | 296 | O=c1c(-c2ccc(F)cc2)coc2cc(O)c(O)cc12
26 | 162 | COc1ccc(N2C(=O)C(C)(C)N(c3ccc(Cc4ccccc4)cc3)C2=S)cc1

Row | melting point [°C] | Structure (SMILES)
27 | 137 to 140 | Cn1cc2c(C=O)c(Br)ccc2n1
28 | 100 | CCOC(=O)C1=CC(=O)C2(C(=O)c3ccc(Cl)cc3)OC2O1 (centres undefined)
29 | 103 to 105 | Cc1cc(C)c2c(c1)Cc1ccccc1S2(=O)=O
30 | 128 to 129 | O=C(O)CCCCCCNS(=O)(=O)c1ccc(Cl)cc1
31 | 143 to 144 | Cc1cc2oc(N(N)CCC#N)nc2c(C)c1C
32 | 52 to 55 | CCCCCC(=O)c1cccc(OCc2ccc3ccccc3c2)c1
33 | 240 | O=C(C=Cc1ccc(Cl)c([N+](=O)[O-])c1)N1CCc2c([nH]c3ccccc23)C1c1ccc2c(c1)OCO2 (centres undefined)
34 | 204 | CCc1nc2ccc(C(C(C)C)n3ccnc3)cc2[nH]c1=O (centres undefined)
35 | 130 to 131 | CCCCC(Cc1ccc(OCCNC(=O)c2ccc(-c3ccccc3)cc2)cc1)C(=O)O (centres undefined)
36 | 213 to 214 | Cc1c(F)c(Oc2cccnc2)nc(Oc2cccc(C(=N)N)c2)c1F
37 | 263 to 264 | COc1cc2c(cc1OC)C(C)(C)Oc1c-2c(OC)cc2oc(C(=O)O)cc(=O)c12
38 | 192 | Cc1cc(N)c([N+](=O)[O-])cc1NC(=O)OCCCl
39 | 226 to 229 | O=c1[nH]cnc2c(Br)scc12
40 | 223 to 225 | NS(=O)(=O)c1cc2cccnc2s1
41 | 140 | Cc1c(NC(=O)OCc2ccccc2)cccc1C(C[N+](=O)[O-])c1c[nH]c2ccc(N3CCOCC3)cc12 (centres undefined)
42 | 288 to 291 | Cn1cccc1CCNC(=O)C(C#N)C(=O)c1nn(-c2ccccc2)c2c1Cc1ccccc1-2 (centres undefined)
43 | 260 to 262 | Nc1nc2cc(-c3cccnc3)ccc2c2c1nc(CO)n2CC1CCOCC1
44 | 142 to 143 | NC(=O)N(O)CC1=CCC(c2ccccc2)CC1 (centres undefined)
45 | 132 to 133 | N=C(Nc1ccccc1-c1ccc(F)cc1)N1CCC(O)CC1
46 | 129 to 130 | Nc1cc(Cl)c([N+](=O)[O-])cc1OC(=O)c1cccc(C(=O)Oc2cc([N+](=O)[O-])c(Cl)cc2N)c1
47 | 143 to 145 | S=C=Nc1ccccc1N1CCCCC1
48 | 94 to 97.5 | Nc1cc(F)c(F)c(Cl)c1Cl
49 | 179 to 180 | CC1(C)OC(c2ccc(S(N)(=O)=O)cc2)=C(I)C1=O
50 | 219 | CC(C)(C)OC(=O)N1CCOC(C2=C(C#N)C(c3cccc(C#N)c3Br)c3c[nH]nc3N2)C1 (centres undefined)
51 | 216 to 219 | NS(=O)(=O)Nc1ccc(N2CCN(c3ccncc3)CC2)cc1
52 | 141 to 143 | CCc1cc2c(s1)SCCc1cc(=O)n(-c3ccc(OC)cc3)nc1-2

More lines, now with the values behind:

Row | Structure (SMILES) | melting point [°C]
53 | O=C1NC(=O)c2c1c(-c1ccccc1Cl)cc1c2ccn1CCCO | 225 to 227
54 | COc1cccc2c1cc(C)n2Cc1c(Cl)cccc1Cl | 154 to 157
55 | O=C(CC1CCCCC1)NC1CCCCC1 | 164 to 165
56 | Cc1ccc(C(=O)Nc2ccc(N3CCN(C)CC3)c(C(F)(F)F)c2)cc1Nc1nccc(-c2cccnc2)n1 | 214 to 217
57 | Cc1nnc(C(O)CCCCCCOc2ccc(OCc3ccccc3)cc2)o1 (centres undefined) | 98 to 100
58 | CN1CCC(c2cc3c(N)cccc3c(=O)[nH]2)CC1 | 222 to 224
59 | CC(=O)OC1c2ccccc2Oc2ccccc21 | 109 to 112
60 | CC(c1ccc(-c2ccc(F)cc2)cc1)N1CCN(CCO)CC1 (centres undefined) | 120 to 123
61 | CN(CCCNC(=O)NCCSCc1csc(NC(=N)N)n1)CCC(c1ccccc1)c1ccccn1 (centres undefined) | 95 to 98
62 | CCC(=Cc1cccc([N+](=O)[O-])c1)[N+](=O)[O-] | 68 to 72
63 | CS(=O)(=O)c1cnc(Cl)c(I)c1 | 178 to 180
64 | CCc1ncc(CCCOc2ccc(-c3nnn(C)n3)cc2)n1C | 115 to 117
65 | CNC(=O)C1=C(C(=O)Nc2cc(OC3CCCC3)c(Cl)cc2F)CCCC1 | 179 to 180
66 | N#Cc1[nH]c(-c2ccc(Cl)cc2)c(S(=O)(=O)C(F)(F)F)c1Br | 170 to 185
67 | CCCCCCCCCCCCCCCCCCC(CO)CC1(C)OCCO1 (centres undefined) | 34 to 35
68 | Cc1ccc(N(CCN2CCC(C(=O)c3ccc(F)cc3)CC2)C(=O)c2cccc([N+](=O)[O-])c2)cc1 | 131 to 134
69 | CCN1CCC(O)(c2cccc(Cl)c2F)C1 (centres undefined) | 71 to 74
70 | CC1(O)CCC2C3CCC45OC4(C)C(=O)C(C#N)CC5(C)C3CCC21C (centres undefined) | 166 to 167
71 | CN(C)C1(Cc2ccccc2)CCC(c2[nH]c3ccccc3c2CC2CCCCC2)CC1 (centres undefined) | 120 to 126
72 | O=C1c2ccccc2C(=O)N1C(Cc1ccccc1)C1CC(Cc2ccccc2)=NO1 (centres undefined) | 134 to 136
73 | OC(CCl)CNC(c1ccccc1)c1ccccc1 (centres undefined) | 66 to 68
74 | O=c1c(C2=CS(=O)(=O)c3cc(NS(=O)(=O)c4ccccc4)ccc3N2)c(O)c2cc(F)ccc2n1CCC1CC1 | > 200
75 | COc1cc(C(N)=O)cc([N+](=O)[O-])c1OC | 182 to 185
76 | N#CC(=Cc1ccc(O)c(O)c1)C(=O)Nc1ccccc1 | 258

Row | Structure (SMILES) | melting point [°C]
77 | CCNC(=O)C(C)NC(=O)C(C)NC(=O)C1CCCN1C(=O)OCc1ccccc1 (stereo not drawn) (Cbz-Pro-Ala-Ala-NHEt; configuration not given here) | 219 to 220
78 | Cc1cc(N2CCc3ncccc3C2)nc(N2CCC(F)(F)CC2)c1[N+](=O)[O-] | 168 to 169
79 | COC(=O)C(Oc1ccc2c(c1)CCC2)c1ccc(OCCCOc2ccc(Cl)cc2)cc1 (centres undefined) | 60 to 62
80 | Cn1cc(C2CCN(CCCCNC(=O)c3sc(-c4ccc(C(F)(F)F)cc4)nc3CO)CC2)c2ccccc21 | 160
81 | COc1cn(-c2cccc(C(F)(F)F)c2)nc(C(C)=O)c1=O | 155 to 156
82 | O=Cc1c([N+](=O)[O-])ccc(Cl)c1[N+](=O)[O-] | 101 to 102
83 | CC(C(=O)C(N)=O)c1ccc(N2Cc3ccccc3C2=O)cc1 (centres undefined) | 220 to 222
84 | N#CCC(=O)NCCCNC(=O)CC#N | 146
85 | CCc1n[nH]c(=O)n1CCOc1ccccc1 | 136 to 139
86 | CN1CCc2nc3cc(Cl)ccc3c(Oc3ccccc3)c2C1 | 138 to 139
87 | CC(NC(=O)C(NC(=O)OCc1ccccc1)C(C)C)C(=O)NC(CC(=O)OC(C)(C)C)C(O)c1nc2ccccc2o1 (mixture of isomers) | 81 to 83
88 | CC(COc1ccc(CC2SC(=O)NC2=O)cc1)NCC(O)CN(C)c1ccccc1 (centres undefined) | 115 to 125
89 | CCOC(=O)CC[C@H](NC(=O)c1ccc(N)c(C)c1)C(=O)OCC | 79 to 82
90 | CCc1nc(OC)c(NC(=O)N2CCN(c3cccc(O)c3)CC2)cc1C(=O)NC(C)C(=O)Nc1cc(CO)cc(Nc2c3ccccc3nc3ccccc23)c1 (centres undefined) | 207 to 209
91 | CN1C(=O)N(c2cc(Cl)cc(Cl)c2)C(=O)[C@]12CN(Cc1cc(C(=O)O)cs1)C[C@H]2c1ccc(C#N)cc1 (relative stereo) | 188
92 | O=C1COc2cc(OCCCCl)ccc2N1 | 95
93 | CCSC1(S)CCC2C3CCC4=CC(=O)C=CC4(C)C3(F)C(O)CC21C (centres undefined) | 239 to 242
94 | COC(=O)c1cc(Cl)ccc1N(C(C)C)S(=O)(=O)c1ccc(C)cc1 | 114 to 116
95 | COc1cc2ncnc(Nc3ccc4ccccc4n3)c2cc1OC | 215 to 216
96 | FC(F)(F)c1cccc(N2CCN(Cc3n[nH]c4ccccc34)CC2)c1 | 78 to 80
97 | Cc1cn(C(C)C(=O)N(C)C)nc1-c1ccc(Cl)cc1 (centres undefined) | 99.5 to 101
98 | CC1(C(=O)c2c[nH]c3ncc(-c4cccc(N5CCOCC5)c4)nc23)CCCCC1 | 208 to 209
99 | COCON=C(C(=O)C=CN(C)C)C(=O)OC | 99 to 100
